Source: US9656955B2, “Pyrrolidine derivatives, pharmaceutical compositions containing them, and their use in therapy” (AbbVie Deutschland GmbH & Co. KG, priority 2013, dated 2017)

biological target: human GlyT1c transporter (Homo sapiens (Human), UniProt P48067); experiment: Radioligand binding assays using recombinant CHO cell membranes expressing human GlyT1; conditions: not given
Sequence (P48067 whole entry): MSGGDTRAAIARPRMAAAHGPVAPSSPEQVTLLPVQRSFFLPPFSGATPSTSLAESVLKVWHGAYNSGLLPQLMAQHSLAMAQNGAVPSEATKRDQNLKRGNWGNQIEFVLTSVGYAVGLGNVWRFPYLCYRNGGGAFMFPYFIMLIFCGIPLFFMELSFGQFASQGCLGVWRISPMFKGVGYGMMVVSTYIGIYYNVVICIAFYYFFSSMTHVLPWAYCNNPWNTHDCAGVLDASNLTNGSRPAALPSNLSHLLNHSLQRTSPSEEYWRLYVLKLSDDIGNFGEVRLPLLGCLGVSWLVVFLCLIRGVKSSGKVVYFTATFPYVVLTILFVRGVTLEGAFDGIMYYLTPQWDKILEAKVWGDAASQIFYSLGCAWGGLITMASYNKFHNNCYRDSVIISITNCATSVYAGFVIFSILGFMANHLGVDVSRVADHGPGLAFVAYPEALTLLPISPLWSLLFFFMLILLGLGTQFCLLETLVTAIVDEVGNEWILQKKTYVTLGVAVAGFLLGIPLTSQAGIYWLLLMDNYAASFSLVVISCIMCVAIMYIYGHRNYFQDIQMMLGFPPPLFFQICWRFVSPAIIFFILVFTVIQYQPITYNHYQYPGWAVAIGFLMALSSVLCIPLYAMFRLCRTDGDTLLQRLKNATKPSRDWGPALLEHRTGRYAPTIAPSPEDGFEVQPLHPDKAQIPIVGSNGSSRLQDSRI

| Ki [µM] | Structure (SMILES) |
| --- | --- |
| ≤ 10 | Cn1cnc(S(=O)(=O)N2C[C@@H](Nc3cccc(F)n3)[C@H](c3ccc(F)cc3)C2)c1 (relative stereo) [Example 238, 6-fluoro-N-{trans-4-(4-fluorophenyl)-1-[(1-methyl-1H-imidazol-4-yl)sulfonyl]pyrrolidin-3-yl}pyridin-2-amine] |
| ≤ 0.1 | Cn1cnc(S(=O)(=O)N2C[C@@H](C(=O)c3ccc(Cl)c(F)c3)[C@H](c3ccc(F)cc3)C2)c1 (relative stereo) [Example 319, (4-Chloro-3-fluorophenyl){trans-4-(4-fluorophenyl)-1-[(1-methyl-1H-imidazol-4-yl)sulfonyl]pyrrolidin-3-yl}methanone] |

same assay, conditions: radioligand binding, human GlyT1c transporter-expressing CHO cell membranes

| Structure (SMILES) | Ki [µM] |
| --- | --- |
| Cn1cc(S(=O)(=O)N2C[C@H](Nc3ccc(F)c(OC(F)(F)F)c3)[C@@H](c3ccc(F)cc3)C2)nn1 [Example 838, (3R,4S)-4-(4-fluorophenyl)-N-[4-fluoro-3-(trifluoromethoxy)phenyl]-1-[(1-methyl-1H-1,2,3-triazol-4-yl)sulfonyl]pyrrolidin-3-amine] | ≤ 0.01 |
| Cn1cnc(S(=O)(=O)N2C[C@H](NCc3csc(Cl)n3)[C@@H](c3ccccc3)C2)c1 [Example 562, (3R,4S)—N-[(2-chloro-1,3-thiazol-4-yl)methyl]-1-[(1-methyl-1H-imidazol-4-yl)sulfonyl]-4-phenylpyrrolidin-3-amine] | ≤ 10 |
| Cn1cnc(S(=O)(=O)N2C[C@H](Nc3ccc(F)c(Cl)c3)[C@@H](c3ccccc3)C2)c1 [Example 417, (3R,4S)—N-(3-chloro-4-fluorophenyl)-1-[(1-methyl-1H-imidazol-4-yl)sulfonyl]-4-phenylpyrrolidin-3-amine] | ≤ 0.01 |
| Cc1cccc2ncc(CN[C@H]3CN(S(=O)(=O)c4cn(C)cn4)C[C@@H]3c3ccccc3)n12 [Example 563, (3R,4S)-1-[(1-methyl-1H-imidazol-4-yl)sulfonyl]-N-[(5-methylimidazo[1,2-a]pyridin-3-yl)methyl]-4-phenylpyrrolidin-3-amine] | ≤ 10 |
| Cn1cc(S(=O)(=O)N2CC(Nc3ccc(F)c(F)c3)C(c3ccccc3)C2)c(C(F)(F)F)n1 (stereo not shown) [Example 476, N-(3,4-difluorophenyl)-1-{[1-methyl-3-(trifluoromethyl)-1H-pyrazol-4-yl]sulfonyl}-4-phenylpyrrolidin-3-amine] | ≤ 10 |
| Cc1ccc(CO[C@H]2CN(S(=O)(=O)c3cn(C)cn3)C[C@@H]2c2ccc(F)cc2)cc1 [Example 731, 4-({(3S,4R)-3-(4-fluorophenyl)-4-[(4-methylbenzyl)oxy]pyrrolidin-1-yl}sulfonyl)-1-methyl-1H-imidazole] | ≤ 0.1 |
| Cn1cnc(S(=O)(=O)N2C[C@@H](C(=O)c3ccc(F)cc3)[C@H](c3ccc(F)cc3)C2)c1 (relative stereo) [Example 303, (4-fluorophenyl){trans-4-(4-fluorophenyl)-1-[(1-methyl-1H-imidazol-4-yl)sulfonyl]pyrrolidin-3-yl}methasone] | ≤ 10 |
| Cn1cnc(S(=O)(=O)N2C[C@H](Nc3cc(Cl)ccn3)[C@@H](c3ccc(F)cc3)C2)c1 [Example 759, 4-chloro-N-{(3R,4S)-4-(4-fluorophenyl)-1-[(1-methyl-1H-imidazol-4-yl)sulfonyl]pyrrolidin-3-yl}pyridin-2-amine] | ≤ 0.01 |
| Cn1cnc(S(=O)(=O)N2C[C@H](Nc3ccc(Cl)c(C(F)(F)F)c3)[C@@H](c3ccc(F)cc3)C2)c1 [Example 540, (3R,4S)—N-[4-chloro-3-(trifluoromethyl)phenyl]-4-(4-fluorophenyl)-1-[(1-methyl-1H-imidazol-4-yl)sulfonyl]pyrrolidin-3-amine] | ≤ 0.1 |
| CCCn1cc(C[C@@H]2CN(S(=O)(=O)c3cn(C)cn3)C[C@H]2c2ccccc2)nn1 [Example 659, 4-({(3S,4R)-1-[(1-methyl-1H-imidazol-4-yl)sulfonyl]-4-phenylpyrrolidin-3-yl}methyl)-1-propyl-1H-1,2,3-triazole] | ≤ 10 |
| Cn1cnc(S(=O)(=O)N2CC(NCc3ccc(C(F)(F)F)cc3Cl)C([C@@H]3CCCO3)C2)c1 (stereo partly drawn) [Example 823, N-[2-chloro-4-(trifluoromethyl)benzyl]-1-[(1-methyl-1H-imidazol-4-yl)sulfonyl]-4-[(2S)tetrahydrofuran-2-yl]pyrrolidin-3-amine] | ≤ 1 |
| Cn1cc(S(=O)(=O)N2C[C@H](Nc3cccc(Cl)c3)[C@@H](c3ccc(F)cc3)C2)nn1 [Example 841, (3R,4S)—N-(3-chlorophenyl)-4-(4-fluorophenyl)-1-[(1-methyl-1H-1,2,3-triazol-4-yl)sulfonyl]pyrrolidin-3-amine] | ≤ 0.01 |
| Cc1ncc(S(=O)(=O)N2C[C@H](Nc3ccc(F)c(F)c3)[C@@H](c3ccc(F)cc3)C2)n1C [Example 757, (3R,4S)—N-(3,4-difluorophenyl)-1-[(1,2-dimethyl-1H-imidazol-5-yl)sulfonyl]-4-(4-fluorophenyl)pyrrolidin-3-amine] | ≤ 10 |
| Cn1cnc(S(=O)(=O)N2C[C@H](Nc3ccc(F)c(-c4cccnc4)c3)[C@@H](c3ccc(F)cc3)C2)c1 [Example 745, (3R,4S)-4-(4-fluorophenyl)-N-[4-fluoro-3-(pyridin-3-yl)phenyl]-1-[(1-methyl-1H-imidazol-4-yl)sulfonyl]pyrrolidin-3-amine] | ≤ 0.01 |
| Cn1cnc(S(=O)(=O)N2C[C@H](Nc3cccc(C(F)(F)F)c3)[C@@H](C3CCCO3)C2)c1 (stereo partly drawn) [Example 604, (3R,4S)-1-[(1-methyl-1H-imidazol-4-yl)sulfonyl]-4-(tetrahydrofuran-2-yl)-N-[3-(trifluoromethyl)phenyl]pyrrolidin-3-amine] | ≤ 0.1 |
| CC(C)OCCCNC(=O)[C@@H]1CN(S(=O)(=O)c2cn(C)cn2)C[C@H]1c1ccc(F)cc1 [Example 577, (3S,4R)-4-(4-fluorophenyl)-1-[(1-methyl-1H-imidazol-4-yl)sulfonyl]-N-[3-(propan-2-yloxy)propyl]pyrrolidine-3-carboxamide] | > 10 |
| CCCCCCN[C@H]1CN(S(=O)(=O)c2cn(C)cn2)C[C@@H]1c1ccc(F)cc1 [Example 665, (3R,4S)-4-(4-fluorophenyl)-N-hexyl-1-[(1-methyl-1H-imidazol-4-yl)sulfonyl]pyrrolidin-3-amine] | ≤ 0.01 |
| Cn1cnc(S(=O)(=O)N2C[C@@H](c3ccccc3)[C@](C)(NCc3ccc(C(F)(F)F)cc3)C2)c1 (relative stereo) [Example 355, Trans-3-methyl-1-[(1-methyl-1H-imidazol-4-yl)sulfonyl]-4-phenyl-N-[4-(trifluoromethyl)benzyl]pyrrolidin-3-amine] | ≤ 1 |
| CC(C)Oc1cc(N[C@H]2CN(S(=O)(=O)c3cn(C)cn3)C[C@@H]2c2ccc(F)cc2)ncn1 [Example 716, N-{(3R,4S)-4-(4-fluorophenyl)-1-[(1-methyl-1H-imidazol-4-yl)sulfonyl]pyrrolidin-3-yl}-6-(propan-2-yloxy)pyrimidin-4-amine] | ≤ 0.1 |
| Cn1nccc1S(=O)(=O)N1CC(Nc2ccc(F)c(F)c2)C(c2ccccc2)C1 (stereo not shown) [Example 516, N-(3,4-difluorophenyl)-1-[(1-methyl-1H-pyrazol-5-yl)sulfonyl]-4-phenylpyrrolidin-3-amine] | ≤ 10 |
| CC1(C)C(=O)Nc2ccc(S(=O)(=O)N3CC(Nc4ccc(F)c(F)c4)C(c4ccccc4)C3)cc21 (stereo not shown) [Example 478, 5-({3-[(3,4-difluorophenyl)amino]-4-phenylpyrrolidin-1-yl}sulfonyl)-3,3-dimethyl-1,3-dihydro-2H-indol-2-one] | ≤ 10 |
| Cn1cnc(S(=O)(=O)N2CC(c3ccccc3)N(Cc3cccc(Cl)c3)C2=O)c1 (stereo not shown) [Example 343, 3-(3-chlorobenzyl)-1-[(1-methyl-1H-imidazol-4-yl)sulfonyl]-4-phenylimidazolidin-2-one] | ≤ 10 |
| Cn1cnc(S(=O)(=O)N2C[C@@H](NC(=O)c3ccc(C(F)(F)F)cc3)[C@@](O)(c3ccccc3)C2)c1 (relative stereo) [Example 538, N-{Trans-4-hydroxy-1-[(1-methyl-1H-imidazol-4-yl)sulfonyl]-4-phenylpyrrolidin-3-yl}-4-(trifluoromethyl)benzamide] | ≤ 10 |
